From ChEMBL document CHEMBL1201862, “PubChem BioAssay data set” (2004)
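Dose response: 5 concentrations. Exposure: 48 h. Format: 96-well plates. Endpoint: linear interpolation; highest concentration if not reached. GI50 is the concentration that inhibits growth by half.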 Calls of active or inactive are those of the source. Cut-off read from the data, not from the text of the source: active = GI50 up to about 1.1 µM and inactive = higher. Non-standard residues stand in square brackets, D forms with d. Residues, ends and D or L forms follow the SMILES beside them. ξ: configuration not given here. *: point of attachment. NMeF = CN[C@@H](Cc1ccccc1)C(=O)O; NMeV = CN[C@H](C(=O)O)C(C)C; ξNMeV = CNC(C(=O)O)C(C)C; Boc = CC(C)(C)OC(=O)*; OBn = c1ccc(CO*)cc1

Columns and labels:
Assay in all cases: NCI tumour cell line growth inhibition, 48 h
LOX IMVI = system: LOX IMVI
RXF 393 = system: RXF 393
MOLT-4 = system: MOLT-4
HCC 2998 = system: HCC 2998
SK-MEL-2 = system: SK-MEL-2
IGROV-1 = system: IGROV-1
HOP-62 = system: HOP-62
SK-MEL-28 = system: SK-MEL-28
UACC-62 = system: UACC-62
SK-MEL-5 = system: SK-MEL-5
SF-539 = system: SF-539
HCT-15 = system: HCT-15
HL-60 = system: HL-60
M14 = system: M14
MDA-MB-435 = system: MDA-MB-435
SNB-75 = system: SNB-75
NCI-H522 = system: NCI-H522
Hs-578T = system: Hs-578T
786-0 = system: 786-0
SN12C = system: SN12C

| SMILES | GI50 (LOX IMVI) | GI50 (RXF 393) | GI50 (MOLT-4) | GI50 (HCC 2998) | GI50 (SK-MEL-2) | GI50 (IGROV-1) | GI50 (HOP-62) | GI50 (SK-MEL-28) | GI50 (UACC-62) | GI50 (SK-MEL-5) | GI50 (SF-539) | GI50 (HCT-15) [µM] | GI50 (HL-60) | GI50 (M14) | GI50 (MDA-MB-435) | GI50 (SNB-75) | GI50 (NCI-H522) | GI50 (Hs-578T) | GI50 (786-0) | GI50 (SN12C) |
| --- | --- | --- | --- | --- | --- | --- | --- | --- | --- | --- | --- | --- | --- | --- | --- | --- | --- | --- | --- | --- |
| CCOC(=O)c1csc(NC(=O)CCN2CCOCC2)n1 | 93.8 µM (inactive) | 75.5 µM (inactive) | 25.9 µM (inactive) | > 100 µM (inactive) | > 100 µM (inactive) | 41 µM (inactive) | > 100 µM (inactive) | > 100 µM (inactive) | > 100 µM (inactive) | 67.1 µM (inactive) | > 100 µM (inactive) | 49.7 | 27.7 µM (inactive) | 76.2 µM (inactive) | > 100 µM (inactive) |  |  |  |  |  |
| CCc1ccccc1NC(=O)/C=C/c1ccccc1 | > 100 µM (inactive) |  | > 100 µM (inactive) | > 100 µM (inactive) | > 100 µM (inactive) |  | 49 µM (inactive) | > 100 µM (inactive) | > 100 µM (inactive) | > 100 µM (inactive) | > 100 µM (inactive) | > 100 |  | > 100 µM (inactive) | > 100 µM (inactive) | > 100 µM (inactive) | > 100 µM (inactive) | 70.6 µM (inactive) | > 100 µM (inactive) | > 100 µM (inactive) |
| COC(=O)/C=C/c1cc2c(cc1-c1c(C(=O)O)cc(OC)c(OC)c1OC)OCO2 | > 10 µM (inactive) |  | > 10 µM (inactive) | > 10 µM (inactive) |  | > 10 µM (inactive) | > 10 µM (inactive) | > 10 µM (inactive) | > 10 µM (inactive) | > 10 µM (inactive) | > 10 µM (inactive) | > 10 | > 10 µM (inactive) | > 10 µM (inactive) | > 10 µM (inactive) | > 10 µM (inactive) | > 10 µM (inactive) | > 10 µM (inactive) | > 10 µM (inactive) | > 10 µM (inactive) |
| CN1CN(c2ccccc2)C2(CCN(CCC3COc4ccccc4O3)CC2)C1=O (stereo unspecified) | 23 µM (inactive) | 31.1 µM (inactive) | 17 µM (inactive) | 8.07 µM (inactive) |  | 17.6 µM (inactive) | > 10 µM (inactive) | 19.6 µM (inactive) | 27.5 µM (inactive) | 12.9 µM (inactive) | 18.8 µM (inactive) | 24.8 | 19.6 µM (inactive) | 15.6 µM (inactive) | 24.2 µM (inactive) | 38.2 µM (inactive) | 13.8 µM (inactive) |  | 36.4 µM (inactive) | 27.7 µM (inactive) |
| S=C1NNC(=S)NN1 | 0.18 µM (active) |  | 0.258 µM (active) | > 1 µM (active) | > 1 µM (active) | 0.436 µM (active) | 0.292 µM (active) | > 1 µM (active) | 0.296 µM (active) | 0.887 µM (active) | > 1 µM (active) | > 1 | > 1 µM (active) | 0.533 µM (active) |  |  | 0.432 µM (active) | 0.697 µM (active) | > 1 µM (active) | 0.198 µM (active) |
| COc1ccc2c(c1)OCC1=C2Oc2ccccc2C1 | 21.4 µM (inactive) |  | 20.3 µM (inactive) | 24 µM (inactive) | 26.5 µM (inactive) | 7.19 µM (inactive) | 55.3 µM (inactive) |  | 69 µM (inactive) | 13.9 µM (inactive) | 27.5 µM (inactive) | 31 | 14.8 µM (inactive) | 38 µM (inactive) | 26.5 µM (inactive) | 3.12 µM (inactive) | 22 µM (inactive) |  | 38 µM (inactive) | 39.3 µM (inactive) |
| C[C@H](NC(=O)OC1C2C=CC(O)C1CC2)c1ccccc1 (stereo partly specified) | > 100 µM (inactive) | > 100 µM (inactive) | > 100 µM (inactive) | > 100 µM (inactive) | > 100 µM (inactive) | > 100 µM (inactive) | > 100 µM (inactive) | > 100 µM (inactive) | > 100 µM (inactive) | > 100 µM (inactive) | > 100 µM (inactive) | 13.1 | > 100 µM (inactive) | 31.1 µM (inactive) |  | > 100 µM (inactive) | > 100 µM (inactive) |  | 38.1 µM (inactive) | > 100 µM (inactive) |
| CCOC(=O)c1c(SCc2cc(=O)[nH]c(=O)[nH]2)n(-c2ccccc2)c(=S)n(-c2ccccc2)c1=O |  | > 100 µM (inactive) | > 100 µM (inactive) | > 100 µM (inactive) | > 100 µM (inactive) | > 100 µM (inactive) | > 100 µM (inactive) | > 100 µM (inactive) | > 100 µM (inactive) | > 100 µM (inactive) | > 100 µM (inactive) | > 100 |  | > 100 µM (inactive) | > 100 µM (inactive) | > 100 µM (inactive) |  |  | > 100 µM (inactive) | > 100 µM (inactive) |
| Cc1ccc(-c2cs/c(=N\c3c(C)n(C)n(-c4ccccc4)c3=O)n2CCO)cc1 |  | > 100 µM (inactive) | 87.5 µM (inactive) | > 100 µM (inactive) | > 100 µM (inactive) |  | > 100 µM (inactive) | > 100 µM (inactive) | > 100 µM (inactive) |  | > 100 µM (inactive) | > 100 | > 100 µM (inactive) | > 100 µM (inactive) | > 100 µM (inactive) | > 100 µM (inactive) |  |  |  | > 100 µM (inactive) |
| CSC1=N/C(=C\c2ccc(C)cc2)C(=O)N1CN1CCOCC1 | 39.9 µM (inactive) |  | 28.9 µM (inactive) |  | > 100 µM (inactive) | 28.2 µM (inactive) | 89.1 µM (inactive) | > 10 µM (inactive) | 93.3 µM (inactive) | 55.8 µM (inactive) |  | 34.1 | > 100 µM (inactive) | 95.1 µM (inactive) | 99.8 µM (inactive) | 46.3 µM (inactive) | 97.5 µM (inactive) | 84.9 µM (inactive) | 44.7 µM (inactive) | > 100 µM (inactive) |
| C[Si](C)(C)CNC(=O)OCc1ccccc1 | > 100 µM (inactive) |  |  | > 100 µM (inactive) | > 100 µM (inactive) | > 100 µM (inactive) | 58.1 µM (inactive) | > 100 µM (inactive) | > 100 µM (inactive) | 57.7 µM (inactive) | > 100 µM (inactive) | > 100 | 57.4 µM (inactive) | > 100 µM (inactive) | > 100 µM (inactive) | 90.4 µM (inactive) | 83.2 µM (inactive) |  | > 100 µM (inactive) | > 100 µM (inactive) |
| CC[C@@]1(O)C(=O)OCc2c1cc1n(c2=O)Cc2c-1nc1ccccc1c2/C=N\NC(=O)C(N)CCSC (stereo partly specified) | < 0.01 µM (active) | < 0.0146 µM (active) | < 0.01 µM (active) | 0.336 µM (active) | 0.713 µM (active) | 0.239 µM (active) | < 0.01 µM (active) | 1.03 µM (active) | < 0.01 µM (active) | 0.0149 µM (active) | < 0.01 µM (active) | 0.39 | < 0.01 µM (active) | < 0.0121 µM (active) | 0.108 µM (active) | < 0.01 µM (active) | < 0.032 µM (active) |  | < 0.01 µM (active) | < 0.01 µM (active) |
| N#C/C(N)=C(C#N)/N=C/N | > 100 µM (inactive) |  | > 100 µM (inactive) | > 100 µM (inactive) | > 100 µM (inactive) | > 100 µM (inactive) | > 100 µM (inactive) | > 100 µM (inactive) | > 100 µM (inactive) | > 100 µM (inactive) | > 100 µM (inactive) | > 100 | > 100 µM (inactive) | > 100 µM (inactive) | > 100 µM (inactive) | > 100 µM (inactive) |  | > 100 µM (inactive) | > 100 µM (inactive) | > 100 µM (inactive) |
| CC1OC(OCC2OC(Oc3c(-c4ccc(O)cc4)oc4cc(O)cc(O)c4c3=O)C(OC3OC(C)C(O)C(O)C3O)C(O)C2O)C(O)C(O)C1O (stereo unspecified) | > 63.1 µM (inactive) | > 100 µM (inactive) | > 100 µM (inactive) | > 100 µM (inactive) | > 100 µM (inactive) | > 100 µM (inactive) | > 100 µM (inactive) | > 100 µM (inactive) | > 100 µM (inactive) | > 100 µM (inactive) | > 100 µM (inactive) | > 42.3 | > 100 µM (inactive) | > 100 µM (inactive) |  | > 100 µM (inactive) | > 100 µM (inactive) |  | > 100 µM (inactive) | > 100 µM (inactive) |
| Oc1ccc(-c2nc3ccc(Cl)cc3s2)cc1 | 21.4 µM (inactive) | 19.8 µM (inactive) | 26.7 µM (inactive) |  | 18.4 µM (inactive) | 16.5 µM (inactive) |  |  | 16.9 µM (inactive) | 18.2 µM (inactive) | 16.2 µM (inactive) | 15.7 | 13.8 µM (inactive) | > 100 µM (inactive) | 18.5 µM (inactive) |  | 16.3 µM (inactive) |  |  | 19.4 µM (inactive) |
| CC(C)C(C(=O)N(C)[C@H](C(=O)N1CCC[C@H]1C(=O)N(C)[C@@H](Cc1ccccc1)C(=O)OCc1ccccc1)C(C)C)N(C)C(=O)[C@@H](NC(=O)OC(C)(C)C)C(C)C (stereo partly specified) (Boc-V[ξNMeV][NMeV]P[NMeF]-OBn) | 23.9 µM (inactive) | 24.6 µM (inactive) | 5.37 µM (inactive) | > 10 µM (inactive) | > 31.6 µM (inactive) | 22.5 µM (inactive) | > 31.6 µM (inactive) | > 31.6 µM (inactive) | > 31.6 µM (inactive) | 7.14 µM (inactive) | > 31.6 µM (inactive) | 8.65 | 4.58 µM (inactive) | 85.1 µM (inactive) |  | 12 µM (inactive) | > 100 µM (inactive) |  | > 43.3 µM (inactive) | > 100 µM (inactive) |
